From US20180353483A1, “PHARMACEUTICAL COMPOSITIONS AND METHODS FOR INDOLEAMINE, 2, 3-DIOXYGENASE INHIBITION AND INDICATIONS THEREFOR” (Incyte Corporation, priority 2015, published 2018)
Where “and” joins values, the source holds several entries; their conditions need not be identical. Equal values may be shown once. Read-outs that look alike come from different tables or passages of the source.

Experiment: Pharmacokinetics of Compound 1 in combination with MK-3475 in subjects with various cancers
Format: in vivo, human
Method: The subjects were not limited to a specific cancers and study include subjects with various cancers. […] One treatment cycle consisted of 21 days. […] Additional subjects were enrolled in a cohort to achieve the minimum of 3 evaluable subjects if dropouts or dose interruptions or reductions occur that result in a subject being non-evaluable for DLTs. […] An additional safety cohort was opened at 100 mg BID in parallel to 300 mg BID being tested. This may also be limited to subjects with melanoma, NSCLC, or specific cancer types from among those included in Phase 1. The RP2D was selected from the evaluated safety expansions.
If a dose was missed by more than 4 hours, that dose was skipped and was resumed at the scheduled time.
Pharmacokinetic samples were obtained at the visits of Cycle 1 Day 1, Cycle 1 Day 8 and Cycle 2 Day 1. […] The exact date and time of the PK blood draws were recorded in the eCRF along with the date and time of the last dose of study drug and details of the last meal preceding the blood draw.
The planned PK time points were used for preliminary PK analyses.

[1] = Cohort 1, 25 mg, first dose, geometric mean
[2] = Cohort 1, 25 mg, first dose, mean ± SD
[3] = Cohort 6, 300 mg BID, steady state C1D8, mean ± SD
[4] = Diagnosis DLBCL, steady state C1D8, individual values of 2 subjects
[5] = Diagnosis RCC, first dose, individual values of 2 subjects
[6] = by dose, 25 mg, first dose, geometric mean
[7] = by dose, 25 mg, first dose, mean ± SD
[8] = by dose, 50 mg BID, steady state C1D8, mean ± SD
[9] = by dose, 100 mg BID, steady state C1D8, mean ± SD
[10] = by dose, 100 mg, first dose, geometric mean

## NS(=O)(=O)NCCNc1nonc1C(=NO)Nc1ccc(F)c(Br)c1 [Compound 1, 4-({2-[(aminosulfonyl)amino]ethyl}amino)-N-(3-bromo-4-fluorophenyl)-N′-hydroxy-1,2,5-oxadiazole-3-carboximidamide]
All diagnoses, first dose, median
  tmax: 2.00 h
All diagnoses, steady state C1D8, mean ± SD
  CL/F: 28.7 ± 10.3 L/h
All diagnoses, steady state C1D8, median
  tmax: 2.00 h
Cohort 1, 25 mg BID, steady state C1D8, mean ± SD
  CL/F: 46.2 ± 8.91 L/h
Cohort 1, 25 mg BID, steady state C1D8, median
  tmax: 1.00 h
[1]
  AUC(0-t): (0.650) μM * h
  Cmax: 199 nM
[2]
  AUC(0-t): 0.711 ± 0.349 µM·h
  Cmax: 231 ± 151 nM
Cohort 1, 25 mg, first dose, median
  tmax: 2.00 h
Cohort 2, 50 mg BID, steady state C1D8, mean ± SD
  CL/F: 52.6 ± 22.4 L/h
Cohort 2, 50 mg BID, steady state C1D8, median
  tmax: 2.00 h
Cohort 2, 50 mg, first dose, geometric mean
  Cmax: 543 nM
Cohort 2, 50 mg, first dose, median
  tmax: 2.00 h
Cohort 3, 100 mg BID, steady state C1D8, geometric mean
  Cmax: 814 nM
Cohort 3, 100 mg BID, steady state C1D8, mean ± SD
  CL/F: 67.4 ± 34.9 L/h
Cohort 3, 100 mg BID, steady state C1D8, median
  tmax: 2.00 h
Cohort 4 (MEL), 50 mg BID, steady state C1D8, mean ± SD
  CL/F: 78.3 ± 28.9 L/h
Cohort 4 (MEL), 50 mg, first dose, median
  tmax: 1.00 h
Cohort 5, 100 mg BID, steady state C1D8, geometric mean
  Cmax: 803 nM
Cohort 5, 100 mg BID, steady state C1D8, mean ± SD
  CL/F: 69.6 ± 28.4 L/h
Cohort 5, 100 mg BID, steady state C1D8, median
  tmax: 2.00 h
Cohort 6, 300 mg BID, steady state C1D8, geometric mean
  Cmax: 2500 nM
[3]
  CL/F: 64.8 ± 23.2 L/h
  Cmax: 2710 ± 1220 nM
Cohort 6, 300 mg BID, steady state C1D8, median
  tmax: 2.00 h
Cohort 6, 300 mg, first dose, median
  tmax: 2.00 h
Cohort 7, 300 mg BID, steady state C1D8, geometric mean
  Cmax: 2520 nM
Cohort 7, 300 mg BID, steady state C1D8, mean ± SD
  CL/F: 65 ± 23.4 L/h
Cohort 7, 300 mg BID, steady state C1D8, median
  tmax: 2.00 h
Cohort 7, 300 mg, first dose, median
  tmax: 2.00 h
Diagnosis DLBCL, first dose, mean ± SD
  AUC(0-t): 2.29 ± 1.16 µM·h
[4]
  AUC0-12 h: 3.99 µM·h
  CL/F: 21.4 L/h and 28.6 L/h
  Cmax: 904 nM
  tmax: 4.0, 4.0 h
Diagnosis GU, first dose, median
  tmax: 2.00 h
Diagnosis GU, steady state C1D8, mean ± SD
  CL/F: 28.1 ± 10.0 L/h
Diagnosis GU, steady state C1D8, median
  tmax: 2.00 h
Diagnosis MEL, first dose, geometric mean
  Cmax: 809 nM
Diagnosis MEL, first dose, median
  tmax: 2.00 h
Diagnosis MEL, steady state C1D8, mean ± SD
  CL/F: 33.0 ± 10.0 L/h
Diagnosis MEL, steady state C1D8, median
  tmax: 2.00 h
Diagnosis NSCLC PD-L1 High, steady state C1D8, geometric mean
  Cmax: 815 nM
Diagnosis NSCLC PD-L1 High, steady state C1D8, mean ± SD
  CL/F: 29.2 ± 10.4 L/h
Diagnosis NSCLC PD-L1 Low/NE, first dose, mean ± SD
  Cmax: 914 ± 343 nM
Diagnosis NSCLC PD-L1 Low/NE, first dose, median
  tmax: 1.00 h
Diagnosis NSCLC PD-L1 Low/NE, steady state C1D8, mean ± SD
  CL/F: 26.9 ± 4.57 L/h
Diagnosis NSCLC PD-L1 Low/NE, steady state C1D8, median
  tmax: 2.00 h
Diagnosis OC, first dose, median
  tmax: 2.00 h
Diagnosis OC, steady state C1D8, mean ± SD
  CL/F: 27.9 ± 8.82 L/h
Diagnosis OC, steady state C1D8, median
  tmax: 2.00 h
[5]
  AUC(0-t): 3.58 µM·h and 1.74 µM·h
  Cmax: 1350 nM and 418 nM
  tmax: 2.0 h
Diagnosis SCCHN, first dose, mean ± SD
  AUC(0-t): 2.32 ± 1.10 µM·h
Diagnosis SCCHN, first dose, median
  tmax: 2.00 h
Diagnosis SCCHN, steady state C1D8, mean ± SD
  CL/F: 33.3 ± 15.5 L/h
Diagnosis SCCHN, steady state C1D8, median
  tmax: 2.00 h
Diagnosis TNBC, first dose, median
  tmax: 2.00 h
Diagnosis TNBC, steady state C1D8, mean ± SD
  CL/F: 25.7 ± 8.22 L/h
Diagnosis TNBC, steady state C1D8, median
  tmax: 2.00 h
Dose Reduction By C4D1 subjects (Table 13), steady state C1D8, mean ± SD
  CL/F: 28.4 ± 11.1 L/h
Dose Reduction By C4D1 subjects (Table 13), steady state C1D8, median
  tmax: 2.00 h
By dose, 25 mg BID, steady state C1D8, mean ± SD
  CL/F: 46.2 ± 8.91 L/h
By dose, 25 mg BID, steady state C1D8, median
  tmax: 1.00 h
[6]
  AUC(0-t): (0.650) μM * h
  Cmax: 199 nM
[7]
  AUC(0-t): 0.711 ± 0.349 µM·h
  Cmax: 231 ± 151 nM
By dose, 25 mg, first dose, median
  tmax: 2.00 h
By dose, 50 mg BID, steady state C1D8, geometric mean
  Cmax: 452 nM
[8]
  CL/F: 68.8 ± 29.0 L/h
  Cmax: 502 ± 237 nM
By dose, 50 mg BID, steady state C1D8, median
  tmax: 2.00 h
By dose, 50 mg, first dose, geometric mean
  Cmax: 500 nM
By dose, 50 mg, first dose, mean ± SD
  Cmax: 537 ± 217 nM
By dose, 50 mg, first dose, median
  tmax: 2.00 h
By dose, 100 mg BID, steady state C1D8, geometric mean
  Cmax: 806 nM
[9]
  CL/F: 69.1 ± 28.9 L/h
  Cmax: 917 ± 424 nM
By dose, 100 mg BID, steady state C1D8, median
  tmax: 2.00 h
[10]
  AUC(0-t): (2.32) μM * h
  Cmax: 719 nM
By dose, 100 mg, first dose, mean ± SD
  Cmax: 803 ± 378 nM
By dose, 100 mg, first dose, median
  tmax: 2.00 h
By dose, 300 mg BID, steady state C1D8, geometric mean
  Cmax: 2510 nM
By dose, 300 mg BID, steady state C1D8, mean ± SD
  CL/F: 64.9 ± 22.7 L/h
By dose, 300 mg BID, steady state C1D8, median
  tmax: 2.00 h
By dose, 300 mg, first dose, geometric mean
  Cmax: 2020 nM
By dose, 300 mg, first dose, mean ± SD
  Cmax: 2290 ± 1230 nM
By dose, 300 mg, first dose, median
  tmax: 2.00 h
human, plasma, oral, 25 mg, Cohort 1, 25 mg BID, steady state C1D8, geometric mean
  Cmax: 276 nM
human, plasma, oral, 25 mg, Cohort 1, 25 mg BID, steady state C1D8, geometric mean, read-out: AUC0-12 h (converted)
  AUC(0-t): 1.25 µM·h
human, plasma, oral, 25 mg, Cohort 1, 25 mg BID, steady state C1D8, mean ± SD
  Cmax: 307 ± 150 nM
human, plasma, oral, 25 mg, Cohort 1, 25 mg BID, steady state C1D8, mean ± SD, read-out: AUC0-12 h (converted)
  AUC(0-t): 1.27 ± 0.23 µM·h
human, plasma, oral, 25 mg, by dose, 25 mg BID, steady state C1D8, geometric mean
  Cmax: 276 nM
human, plasma, oral, 25 mg, by dose, 25 mg BID, steady state C1D8, geometric mean, read-out: AUC0-12 h (converted)
  AUC(0-t): 1.25 µM·h
human, plasma, oral, 25 mg, by dose, 25 mg BID, steady state C1D8, mean ± SD
  Cmax: 307 ± 150 nM
human, plasma, oral, 25 mg, by dose, 25 mg BID, steady state C1D8, mean ± SD, read-out: AUC0-12 h (converted)
  AUC(0-t): 1.27 ± 0.23 µM·h
human, plasma, oral, 50 mg, Cohort 2, 50 mg BID, steady state C1D8, geometric mean
  Cmax: 550 nM
human, plasma, oral, 50 mg, Cohort 2, 50 mg BID, steady state C1D8, geometric mean, read-out: AUC0-12 h (converted)
  AUC(0-t): 2.34 µM·h
human, plasma, oral, 50 mg, Cohort 2, 50 mg BID, steady state C1D8, mean ± SD
  Cmax: 603 ± 227 nM
human, plasma, oral, 50 mg, Cohort 2, 50 mg BID, steady state C1D8, mean ± SD, read-out: AUC0-12 h (converted)
  AUC(0-t): 2.53 ± 1.02 µM·h
human, plasma, oral, 50 mg, Cohort 2, 50 mg, first dose, geometric mean, read-out: AUC0-t
  AUC(0-t): 1.53 µM·h
human, plasma, oral, 50 mg, Cohort 2, 50 mg, first dose, mean ± SD
  Cmax: 574 ± 216 nM
human, plasma, oral, 50 mg, Cohort 2, 50 mg, first dose, mean ± SD, read-out: AUC0-t
  AUC(0-t): 1.6 ± 0.507 µM·h
human, plasma, oral, 50 mg, Cohort 4 (MEL), 50 mg BID, steady state C1D8, geometric mean
  Cmax: 403 nM
human, plasma, oral, 50 mg, Cohort 4 (MEL), 50 mg BID, steady state C1D8, geometric mean, read-out: AUC0-12 h (converted)
  AUC(0-t): 1.58 µM·h
human, plasma, oral, 50 mg, Cohort 4 (MEL), 50 mg BID, steady state C1D8, mean ± SD
  Cmax: 442 ± 232 nM
human, plasma, oral, 50 mg, Cohort 4 (MEL), 50 mg BID, steady state C1D8, mean ± SD, read-out: AUC0-12 h (converted)
  AUC(0-t): 1.77 ± 1.12 µM·h
human, plasma, oral, 50 mg, Cohort 4 (MEL), 50 mg BID, steady state C1D8, median, read-out: tmax
  tmax: 1.5 h
human, plasma, oral, 50 mg, Cohort 4 (MEL), 50 mg, first dose, geometric mean, read-out: AUC0-t
  AUC(0-t): 1.2 µM·h
human, plasma, oral, 50 mg, Cohort 4 (MEL), 50 mg, first dose, mean ± SD, read-out: AUC0-t
  AUC(0-t): 1.32 ± 0.698 µM·h
human, plasma, oral, 50 mg, Cohort 4 (MEL), first dose, geometric mean
  Cmax: 474 nM
human, plasma, oral, 50 mg, Cohort 4 (MEL), first dose, mean ± SD
  Cmax: 512 ± 224 nM
human, plasma, oral, 50 mg, by dose, 50 mg BID, steady state C1D8, geometric mean, read-out: AUC0-12 h (converted)
  AUC(0-t): 1.83 µM·h
human, plasma, oral, 50 mg, by dose, 50 mg BID, steady state C1D8, mean ± SD, read-out: AUC0-12 h (converted)
  AUC(0-t): 2.05 ± 1.12 µM·h
human, plasma, oral, 50 mg, by dose, 50 mg, first dose, geometric mean, read-out: AUC0-t
  AUC(0-t): 1.33 µM·h
human, plasma, oral, 50 mg, by dose, 50 mg, first dose, mean ± SD, read-out: AUC0-t
  AUC(0-t): 1.43 ± 0.63 µM·h
human, plasma, oral, 50 mg, subjects with dose reduction before C4D1, 50 mg BID, C1D8, geometric mean
  Cmax: 519 nM
human, plasma, oral, 50 mg, subjects with dose reduction before C4D1, 50 mg BID, C1D8, mean ± SD
  Cmax: 557 ± 260 nM
human, plasma, oral, 100 mg BID, All diagnoses, steady state C1D8, geometric mean
  Cmax: 1010 nM
